Experimental data taken from paper PMC12040169 (PLOS Biology, 2025).

Test: in vitro
Settings: human, hela cells, % viability

SMILES | viability at 28.5 h, 10 µM
O=C(OCCC1SC(NC2CC3C=CC2C3)=NC1=O)c1cc(C(F)(F)F)ccc1C(F)(F)F (stereo not shown) [CBK200058T] | 88.1%
O=C(OCCC1SC(NC2CC3C=CC2C3)=NC1=O)c1c(F)cccc1Cl (stereo not shown) [CBK200061T] | 88.7%
CC(C)(C)c1ccc(S(=O)(=O)N2CCCC[C@H]2COC(=O)c2nccnc2C(=O)O)cc1 [CBK200065] | 91.6%
CC(C)(C)c1ccc(S(=O)(=O)N2CCCCC2CCO)cc1[N+](=O)[O-] (stereo not shown) [CBK200067] | 93.9%
C1CCc2nnc(C34CC5CC(CC(C5)C3)C4)n2CC1 [CBK200068] | 83.5%
CN(C)CCCNC(=O)C1CCCCN1S(=O)(=O)c1ccc(C(C)(C)C)cc1 (stereo not shown) [CBK200070] | 101%
C=C(C)Cn1c(SCC(C)C)nnc1-c1ccccc1OC [CBK200071] | 91.5%
C=C(C)Cn1c(SC(C)C)nnc1-c1ccccc1OC [CBK200072] | 97.1%
C=C(C)Cn1c(SC(C)C)nnc1-c1cccnc1 [CBK200073] | 85.7%
C=C(C)Cn1c(SCC(C)C)nnc1-c1ccccc1Cl [CBK200078] | 92.4%
C=C(C)Cn1c(SC(C)C)nnc1-c1ccccc1Cl [CBK200079] | 99.9%
C=C(C)Cn1c(SCC(C)C)nnc1-c1ccccc1OC(F)(F)F [CBK200080] | 97.7%
C=C(C)Cn1c(SC(C)C)nnc1-c1ccccc1OC(F)(F)F [CBK200081] | 114%
C=C(C)Cn1c(Cc2ccccc2)nnc1SCC(C)C [CBK200082] | 102%
C=C(C)Cn1c(Cc2ccccc2)nnc1SC(C)C [CBK200083] | 92%
C=C(C)Cn1c(SCC(C)C)nnc1-c1cccs1 [CBK200086] | 96.5%
C=C(C)Cn1c(Cc2c[nH]c3ccccc23)nnc1SCC(C)C [CBK200087T] | 98.6%
Cc1ccccc1-c1nnc2n1CCCN2 [CBK200089] | 115%
C=C(C)Cn1c(SCC(C)C)nnc1-c1ccccc1C(=O)O [CBK200093] | 90.1%
C=C(C)Cn1c(SCC(C)C)nnc1-c1ccc(O)nc1 [CBK200094] | 92.2%
C=C(C)Cn1c(SCC(C)C)nnc1-c1scc(C)c1Cl [CBK200095] | 92.7%
C=C(C)Cn1c(SCC(C)C)nnc1-c1ccccc1C(=O)NC(C)C [CBK200096] | 87.8%
CC(C)Cc1nnc(-c2ccccc2Cl)n1CC1CC1 [CBK200097] | 98.1%
COc1cc(C(O)c2cc3c(cc2CO)OCO3)cc(OC)c1OC (stereo not shown) [CBK200098] | 100%
COC(=O)C1C(=O)c2cc3c(cc2C1c1cc(OC)c(OC)c(OC)c1)OCO3 (stereo not shown) [CBK200099] | 92.5%

SMILES | viability at 28.5 h, 10 µM
COc1ccc(C(C)c2cc3c(cc2O)OCO3)cc1 (stereo not shown) [CBK200100] | 90.3%
COc1ccc(C(C)c2cc3c(cc2O)OCO3)c(F)c1 (stereo not shown) [CBK200101] | 98.1%
COc1ccc(C(C)c2cc3c(cc2N)OCO3)cc1 (stereo not shown) [CBK200102T] | 87.2%
COC(=O)[C@H]1Cc2cc3c(cc2[C@H]1c1cc(OC)c(OC)c(OC)c1)OCO3 [CBK200105] | 54.8%
COc1cc([C@@H]2c3cc4c(cc3[C@H](O)[C@H]2C(=O)Nc2ccccc2)OCO4)cc(OC)c1OC [CBK200106] | 101%
COc1cc(C(C)c2cc3c(cc2OCC(=O)O)OCO3)cc(OC)c1OC (stereo not shown) [CBK200109] | 90.5%
COc1ccc(C(C)c2cc3c(cc2OCCO)OCO3)c(F)c1 (stereo not shown) [CBK200111] | 60.4%
COc1ccc(C(C)c2cc3c(cc2OC)OCO3)c(F)c1 (stereo not shown) [CBK200112] | 53.3%
O=C(O)Cc1sc(NCCN2CCOCC2)nc1-c1ccccc1 [CBK200113T] | 88.7%
O=C(O)CC1SC(Nc2ccc(F)cc2F)=NC1=O (stereo not shown) [CBK200115] | 99.3%
C[C@@H]1CN(C(=O)c2ccc3[nH]cnc3c2)C[C@H](C)O1 [CBK200120] | 106%
Cc1nc(C(F)(F)F)ccc1COC(=O)N1CCOCC1 [CBK200122] | 85.9%
Cc1cnc(COC(=O)N2C[C@@H](C)O[C@@H](C)C2)cn1 [CBK200124] | 81.4%
O=C(Nc1cnc2ccccc2c1)OCCc1cccnc1 [CBK200126] | 93.5%
Cc1cc(COC(=O)Nc2ccc3nc(C)ccc3c2)cc(C)n1 [CBK200127] | 90.5%
Cc1ncccc1COC(=O)Nc1cnc2ccccc2c1 [CBK200128] | 95.9%
CN1CCC(COC(=O)Nc2ccc3cc[nH]c3c2)CC1 [CBK200130] | 98.7%
Cc1cc(COC(=O)N2CCc3ccccc32)cc(C)n1 [CBK200134] | 81.4%
Cc1ccc(NC(=O)OCCN2CCN(C)CC2)c(C)n1 [CBK200135] | 106%
Cc1cc(COC(=O)NCc2ccncc2)cc(C)n1 [CBK200136] | 99.4%
Cc1ncccc1COC(=O)NCCc1ccccn1 [CBK200137] | 104%
Cc1ncccc1COC(=O)N1Cc2ccccc2C1 [CBK200138] | 91.1%
CN1CCN(CCOC(=O)NCc2ccnc3ccccc23)CC1 [CBK200148] | 94%
Cc1cc(COC(=O)N2CCCC(C(F)(F)F)C2)cc(C)n1 (stereo not shown) [CBK200150] | 92.8%
Cc1cc(COC(=O)N2CCCC(F)(F)C2)cc(C)n1 [CBK200151] | 125%

SMILES | viability at 28.5 h, 10 µM
Cc1cc(COC(=O)N2CCC(CO)CC2)cc(C)n1 [CBK200152] | 91%
Cc1cc(COC(=O)N2CCSCC2)cc(C)n1 [CBK200153] | 107%
Cc1ncccc1COC(=O)N1CCC(C(F)(F)F)CC1 [CBK200154] | 102%
Cc1ncccc1COC(=O)N1CCCC(F)C1 (stereo not shown) [CBK200155] | 118%
O=C(OCCc1ccncc1)N1CCC(F)(F)CC1 [CBK200158] | 105%
O=C(OCCc1cccnc1)N1CCSCC1 [CBK200160] | 103%
O=C(OCc1csc2ccc(Cl)cc12)N1CCOCC1 [CBK200164] | 94.7%
COc1ncccc1C(=O)N1CCN(c2ccccc2)CC1 [CBK200166] | 103%
COc1ccc(C(=O)N2CCN(Cc3ccccc3)CC2)c(OC)n1 [CBK200169] | 99.2%
Cc1ccc(C(=O)N2CCN(Cc3ccccc3)CC2)cn1 [CBK200170] | 93.6%
O=C(c1cc2ccccc2[nH]1)N1CCN(Cc2ccccc2)CC1 [CBK200172] | 118%
Cc1noc(C)c1C(=O)N1CCN(Cc2ccccc2)CC1 [CBK200173] | 90.9%
O=C(c1nccc2ccccc12)N1CCN(Cc2ccccc2)CC1 [CBK200176] | 98%
Cn1cncc1C(=O)N1CCN(Cc2ccccc2)CC1 [CBK200178] | 98.2%
Cc1ccc(C(=O)N2CCC(Cc3ccccc3)CC2)cn1 [CBK200179] | 94.7%
O=C(c1c[nH]c2ccccc12)N1CCC(Cc2ccccc2)CC1 [CBK200180] | 91.3%
Cn1cccc1C(=O)N1CCC(Cc2ccccc2)CC1 [CBK200182] | 102%
O=C(c1ccno1)N1CCC(Cc2ccccc2)CC1 [CBK200185] | 112%
CCOc1ccsc1C(=O)N1CCC(Cc2ccccc2)CC1 [CBK200186] | 114%
Cc1cc(C(=O)N2CCC(Cc3ccccc3)CC2)n[nH]1 [CBK200187] | 84.2%
O=C(c1cscn1)N1CCC(Cc2ccccc2)CC1 [CBK200188] | 103%
COc1ccc(C(=O)NCc2ccccc2)c(OC)n1 [CBK200190] | 142%
O=C(c1cccc2[nH]ccc12)N1CCN(CCc2ccccc2)CC1 [CBK200203] | 104%
O=C(c1cncnc1)N1CCC(Cc2ccccc2)CC1 [CBK200212] | 92.8%
O=C(c1cnc2ccccc2n1)N1CCN(CCc2ccccc2)CC1 [CBK200214] | 91%

SMILES | viability at 28.5 h, 10 µM
Cc1ccc(NC(=O)c2ccc3nccnc3c2)c(C)n1 [CBK200219] | 93.6%
Cc1noc(C)c1NC(=O)c1cnc2ccccc2n1 [CBK200220] | 98.1%
Cc1noc(C)c1NC(=O)c1ccc2nccnc2c1 [CBK200221] | 84.1%
Cc1noc(C)c1C(=O)N1CCN(CCc2ccccc2)CC1 [CBK200225] | 95.8%
COc1ncccc1C(=O)N1CCN(CCc2ccccc2)CC1 [CBK200226] | 88.4%
O=C(c1ccc(CCN2CCCC2)nc1)N1CCN(CCc2ccccc2)CC1 [CBK200227] | 91.6%
COc1ccc(C(=O)N2C[C@@H](C)O[C@@H](C)C2)c(OC)n1 [CBK200231] | 92.2%
C[C@@H]1CN(C(=O)c2n[nH]c3ccccc23)C[C@H](C)O1 [CBK200232] | 98.6%
C[C@@H]1CN(C(=O)c2nccc3ccccc23)C[C@H](C)O1 [CBK200233] | 92.8%
C[C@@H]1CN(C(=O)c2cc3ccccc3n2C)C[C@H](C)O1 [CBK200234] | 91.4%
O=C(NC1CCCC1)c1cccnc1 [CBK200236] | 111%
O=C(Cc1c[nH]c2ccccc12)NC1CCCC1 [CBK200238] | 76.1%
O=C(CCc1cccnc1)NC1CCCC1 [CBK200239] | 97.9%
O=C(OCc1ccccc1)N1CCN(c2ccccc2)CC1 [CBK200241] | 116%
CC(OC(=O)N1CCN(c2ccccc2)CC1)c1ccccc1 (stereo not shown) [CBK200243] | 104%
O=C(NCc1ccccc1)c1ccc(N2CCOCC2)nc1 [CBK200244] | 96.3%
CCN1CCN(C(=O)c2cccn2C)CC1 [CBK200248] | 84.7%
CCN1CCN(C(=O)c2ccc3ccccc3n2)CC1 [CBK200249] | 133%
CCN1CCN(C(=O)c2ccc(N(C)C)cc2)CC1 [CBK200252] | 96.4%
CCN1CCN(C(=O)Cc2cn(C)c3ccccc23)CC1 [CBK200254] | 96.9%
O=C(Cn1cnnn1)NCc1ccccc1 [CBK200255] | 83.6%
Cn1cncc1C(=O)NC1CCCC1 [CBK200256] | 95.5%
